Measured values taken from PubChem BioAssay (NCI).
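Results reflect a 48-hour exposure of cells in 96-well plates to compound at five concentrations. At the GI50, growth is halved. The concentration for full growth arrest is given as TGI.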

How the values were obtained:
Experiment in all cases: growth of human tumour cells (NCI), 48 h
[1] = test system: KM20L2 colon
[2] = test system: HCC-2998 colon
[3] = test system: K-562 leukemia
[4] = test system: 786-0 renal
[5] = test system: SK-OV-3 ovarian
[6] = test system: TK-10 renal
[7] = test system: OVCAR-5 ovarian
[8] = test system: UACC-62 melanoma
[9] = test system: HCT-15 colon
[10] = test system: LXFL 529 NSCLC
[11] = test system: DMS 114 small cell lung
[12] = test system: HCT-116 colon
[13] = test system: M19-MEL melanoma
[14] = test system: HT29 colon
[15] = test system: U251 CNS
[16] = test system: NCI-H460 lung
[17] = test system: M14 melanoma
[18] = test system: HOP-62 NSCLC
[19] = test system: COLO 205 colon
[20] = test system: A498 renal
[21] = test system: SF-539 CNS
[22] = test system: KM12 colon
[23] = test system: SNB-19 CNS
[24] = test system: SF-295 CNS
[25] = test system: LOX IMVI melanoma
[26] = test system: UO-31 renal
[27] = test system: SK-MEL-5 melanoma
[28] = test system: OVCAR-3 ovarian
[29] = test system: MALME-3M melanoma
[30] = test system: UACC-257 melanoma
[31] = test system: ACHN renal
[32] = test system: SK-MEL-28 melanoma
[33] = test system: SNB-78 CNS
[34] = test system: CAKI-1 renal
[35] = test system: SF-268 CNS
[36] = test system: NCI-H226 lung
[37] = test system: A549 NSCLC
[38] = test system: SN12C renal
[39] = test system: SK-MEL-2 melanoma
[40] = test system: DLD-1 colon
[41] = test system: IGROV1 ovarian
[42] = test system: RPMI-8226 leukemia
[43] = test system: MOLT-4 leukemia
[44] = test system: SW-620 colon
[45] = test system: HL-60(TB) leukemia
[46] = test system: EKVX NSCLC
[47] = test system: NCI-H23 lung
[48] = test system: HOP-92 NSCLC
[49] = test system: SNB-75 CNS
[50] = test system: RXF 393 renal
[51] = test system: OVCAR-8 ovarian
[52] = test system: NCI-H522 lung
[53] = test system: CCRF-CEM leukemia
[54] = test system: DMS 273 small cell lung
[55] = test system: OVCAR-4 ovarian

Cc1nc(-c2nc(C)c(C(=O)/C=C/c3ccc([N+](=O)[O-])cc3)s2)sc1C(=O)/C=C/c1ccc([N+](=O)[O-])cc1
TGI [1]: > 100 µM
TGI [2]: > 100 µM
TGI [3]: > 100 µM
TGI [4]: > 100 µM
TGI [5]: > 100 µM
TGI [6]: > 100 µM
TGI [7]: > 100 µM
TGI [8]: > 100 µM
TGI [9]: > 100 µM
TGI [10]: > 100 µM
TGI [11]: > 100 µM
TGI [12]: > 100 µM
TGI [13]: > 100 µM
TGI [14]: > 100 µM
TGI [15]: > 100 µM
TGI [16]: > 100 µM
TGI [17]: > 100 µM
TGI [18]: > 100 µM
TGI [19]: > 100 µM
TGI [20]: > 100 µM
TGI [21]: > 100 µM
TGI [22]: > 100 µM
TGI [23]: > 100 µM
TGI [24]: > 100 µM
TGI [25]: > 100 µM
TGI [26]: > 100 µM
TGI [27]: > 100 µM
TGI [28]: > 100 µM
TGI [29]: > 100 µM
TGI [30]: > 100 µM
TGI [31]: > 100 µM
TGI [32]: > 100 µM
TGI [33]: > 100 µM
TGI [34]: > 100 µM
TGI [35]: > 100 µM
TGI [36]: > 100 µM
TGI [37]: > 100 µM
TGI [38]: > 100 µM
TGI [39]: > 100 µM
TGI [40]: > 100 µM
TGI [41]: > 100 µM
TGI [42]: > 100 µM
TGI [43]: > 100 µM
TGI [44]: > 100 µM
TGI [45]: > 100 µM
TGI [46]: > 100 µM
TGI [47]: > 100 µM
TGI [48]: > 100 µM
TGI [49]: > 100 µM
TGI [50]: > 100 µM
TGI [51]: > 100 µM

O=C(/C=C/c1ccc(Cl)cc1)c1ccc(Cl)c(Cl)c1
TGI [52]: 42.9 µM
TGI [1]: > 100 µM
TGI [2]: > 100 µM
TGI [3]: > 100 µM
TGI [4]: > 100 µM
TGI [5]: 85.9 µM
TGI [8]: 70 µM
TGI [9]: > 100 µM
TGI [10]: 92.5 µM
TGI [11]: > 100 µM
TGI [12]: > 100 µM
TGI [13]: > 100 µM
TGI [14]: > 100 µM
TGI [15]: 44.5 µM
TGI [16]: > 100 µM
TGI [17]: > 100 µM
TGI [18]: 53.9 µM
TGI [20]: > 100 µM
TGI [21]: 56.9 µM
GI50 [22]: 12.2 µM
TGI [22]: > 100 µM
TGI [23]: 75.5 µM
TGI [24]: > 100 µM
TGI [25]: > 100 µM
TGI [26]: 80.9 µM
TGI [27]: 68.7 µM
TGI [28]: 48.3 µM
TGI [29]: 62.4 µM
TGI [30]: 98.8 µM
TGI [31]: > 100 µM
TGI [32]: 66.7 µM
TGI [34]: 53.1 µM
TGI [53]: 50.5 µM
TGI [35]: > 100 µM
TGI [36]: 34.9 µM
TGI [37]: > 100 µM
GI50 [38]: 48 µM
TGI [38]: > 100 µM
TGI [39]: 47.8 µM
TGI [40]: > 100 µM
TGI [41]: 79.9 µM
TGI [42]: 8.88 µM
TGI [43]: 69.6 µM
TGI [54]: > 100 µM
GI50 [44]: 19.6 µM
TGI [44]: > 100 µM
TGI [55]: > 100 µM
GI50 [45]: 15.9 µM
TGI [45]: 45.8 µM
TGI [46]: 87.2 µM
TGI [47]: 30.2 µM
TGI [49]: 61.5 µM
TGI [50]: 72.2 µM
TGI [51]: 47.9 µM
